# Data from patent publication US7199150B2, “Amino alcohol compounds” (Sankyo Company, Limited, priority 2002, dated 2007).
# Assays:
# [1] = test system: HvGR (Host Versus Graft Reaction) in Rats; experiment: Inhibitory activities against HvGR in rats, combination with immunosuppressants (Test Example 3); format: in vivo, Lewis rats; conditions: oral 5 ml/kg once daily for 4 successive days; suspensions: cyclosporin A 0.08 mg/5 ml, tacrolimus 0.08 mg/5 ml, Compound A 0.008 mg/5 ml; popliteal lymph node weight
# Procedure: Determination of Inhibitory Activities of Compounds against HvGR (Host Versus Graft Reaction) in Rats (1) Two strains of rats (Lewis rats (male, 6 weeks of age, Charles River Japan Inc.) and […] (male, 7 weeks of age, Japan SLC Inc.) were used. Five rats/group were used. […] Spleen cells were isolated from the spleens of […] or Lewis rats and floated in RPMI1640 medium (Life Technologies Inc.) at a concentration of 1×10^8 cells/ml. 0.1 ml of the medium containing the free-floating spleen cells of […] or 0.1 ml of the medium containing the free-floating spleen cells of Lewis rats were intracutaneously injected into the bilateral foot-pads of hindlimbs of Lewis rats. (3) Administration of Compounds […] In both the “same strain group” (Lewis rats treated with spleen cells of Lewis rats but not with the compounds) and “control group” (Lewis rats treated with the spleen cells of […] but not with the compounds), 0.5% tragacanth solution was orally administered. […] The inhibitory activities of the compounds were calculated from the “HvGR-induced changes in the popliteal lymph node weights” of individual rats in drug-treated group versus the average “HvGR-induced changes in the popliteal lymph node weights” in the control group.
# [2] = test system: Host Versus Graft Reaction in Rats; experiment: Inhibitory activities against host versus graft reaction (HvGR) in rats (Test Example 1); format: in vivo; conditions: oral, once daily for 4 successive days; HvGR-induced change in popliteal lymph node weight; Lewis rats injected with WKAH/Hkm spleen cells
# Procedure: Determination of Inhibitory Activities of Compounds against Host Versus Graft Reaction in Rats
# (1) Two strains of rats [Lewis rats (male, 6 weeks of age, Charles River Japan Inc.) and WKAH/Hkm rats (male, 7 weeks of age, Japan SLC Inc.) were used. Five rats/group were used.
# Spleen cells were isolated from the spleens of WKAH/Hkm and Lewis rats and floated in RPMI1640 medium (Life Technologies Inc.) at a concentration of 1×10^8 cells/ml. 0.1 ml of the medium containing the free-floating spleen cells of WKAH/Hkm rats or Lewis rats (1×10^7 of the spleen cells) was then intracutaneously injected into the bilateral foot-pads of hindlimbs of Lewis rats.
# (3) Administration of the Compounds
# Compounds were suspended in 0.5% tragacanth solution. The suspended compounds were orally administered to rats in the drug-treated group (Lewis rats injected with spleen cells of WKAH/Hkm rats and treated with the compound) at a volume of 5 ml/kg once daily for 4 successive days starting on the day of spleen cell injection. The tragacanth solution (0.5%) was orally administered, instead of the compound-suspended solution, to rats in the “same strain group” (Lewis rats injected with spleen cells of Lewis rats) and the control group (Lewis rats injected with spleen cells of WKAH/Hkm rats and not treated with the compound).
# (4) Determination of Inhibitory Activities of Compounds against HvGR
# Average weight of the popliteal lymph nodes of the same strain rats was subtracted from individual weights of the popliteal lymph nodes of individual rats (“HvGR-induced changes in weight of the popliteal lymph nodes”). The inhibitory activities of compounds were calculated from the “HvGR-induced changes in weights of the popliteal lymph nodes” of individual rats in the drug-treated group versus the average “HvGR-induced changes in weights of the popliteal lymph nodes” in the control group. The inhibitory activities of compounds were expressed as ID50 values (mg/kg) as calculated by least squares method based on the doses of compounds administered and inhibitory activities at these doses.
# [3] = test system: Adjuvant-Induced Arthritis; experiment: Inhibitory activities against adjuvant-induced arthritis (Test Example 2); format: in vivo, rats (usually Lewis rats); conditions: oral, once daily for 21 successive days; foot swelling volume one day after final administration
# Procedure: Determination of Inhibitory Activities of Compounds against Adjuvant-Induced Arthritis
# (1) Preparation of Adjuvant
# Adjuvant was prepared by suspension of killed Mycobacterium butyricum in mineral oil at a concentration of 2 mg/ml, followed by application of ultrasonic waves.
# (2) Preparation of Test Compound
# Test compounds were suspended or dissolved in 0.5% tragacanth solution.
# (3) Induction of Adjuvant Arthritis
# 0.05 ml of adjuvant solution prepared as described in (1) was intracutaneously injected into the right foot-pad of rats (usually Lewis rats). Five rats/group were usually used. Adjuvant was not injected in one group of rats (normal group).
# (4) Administration of Compound
# Compounds prepared as described in (2) were orally administered to rats at a volume of 5 ml/kg once daily for 21 successive days. 0.5% tragacanth solution was similarly administered to rats in one group injected adjuvant (control group) and a group not injected adjuvant.
# (5) Calculation of Inhibitory Activities of Compounds against Adjuvant Arthritis
# One day after the final drug administration, the foot volume of each rat was measured by an apparatus for determination of the volume. The average value in normal rats was subtracted from the individual values in the drug-treated and control groups. The difference was expressed as the swelling volume. Inhibitory rate of the compound was calculated from the ratio of the individual swelling volume of the rat treated with the compound to the average swelling volume in the control group.
# Inhibitory activities of compounds were expressed as ID50 values (mg/kg) calculated by least squares method based on the doses of the compound and their inhibitory ratios.
# [4] = test system: Mice GvHD (Graft Versus Host Disease); experiment: Inhibitory activities against mice GvHD (Test Example 4); format: in vivo, BDF1 mice; conditions: oral 10 ml/kg once daily for 10 successive days; suspensions: cyclosporin A 0.1 mg/10 ml, tacrolimus 0.2 mg/10 ml, Compound B 0.01 mg/10 ml; spleen weight compensated for body weight
# Procedure: Determination of Inhibitory Activities of Compounds against Mice GvHD (Graft Versus Host Disease) (1) Two strains of mice. [BDF1 mice (male, 6 weeks of age, Charles River Japan Inc.) and C57BL/6 mice (male, 7 weeks of age, Charles River Japan Inc.)] were used. Five mice/group (hosts) were used. (2) Induction of GvHD Spleen cells were isolated from the spleens of C57BL/6 mice or BDF1 mice and floated in RPMI1640 medium (Life Technologies Inc.) at a concentration of 2×10^7 cells/ml. 0.5 ml of the medium containing the free-floating spleen cells of C57BL/6 mice) was intravenously injected into the tail vein of BDF1 mice (GvHD induction group) and the same volume of the medium containing free-floating spleen cells of BDF1 mice was intravenously injected into the tail vein of BDF1 mice (the “same strain group”). (3) Administration of Compounds […] Body weight was determined and spleens were weighed, and “spleen weight compensated for the body weight following injection of GvHD” was calculated by dividing the spleen weight by the body weight. […] The inhibitory activities of compounds were calculated from the ratios of individual “spleen weight compensated for body weight following injection of GvHD” to the average “spleen weight compensated for body weight following injection of GvHD” in the control group.
# [5] = test system: Rejection Response against Skin Transplantation of Mice; experiment: Inhibitory activities against rejection response against skin transplantation of mice (Test Example 5); format: in vivo; conditions: oral 10 ml/kg once daily for 14 successive days from transplantation; suspensions: cyclosporin A 30 mg/10 ml, tacrolimus 3 mg/10 ml, Compound B 0.1 mg/10 ml; C57BL/6N skin on BALB/cAnN mice
# Description: (1) Two strains of mice [C57BL/6N mice (female, 5 weeks of age, Charles River Japan Inc.) and BALB/cAnN mice (female, 5 weeks of age, Charles River Japan Inc.)] were used. Ten mice/group (transplanted individuals) were used.
# C57BL/6N mice were sacrificed by cervical dislocation and their skins removed. The skins were cut to 8-mm diameter sizes by biopsy punch (MK706, 8 mm, Kai Industries Co., Ltd.). Next, 8 mm diameter sections of the back skins of BALB/cAnN mice anaesthetized with Avertin were removed by biopsy punch. The skin was cut along the edge of the damaged area by fine ophthalmic scissors. The previously cut skins of C57BL/6N mice were transplanted to the removed areas of the skin in BALB/cAnN mice. The transplanted areas were fixed with Aron Alpha (Sankyo Co., Ltd.). […]
# On the 6th day after transplantation (the day of transplantation was defined as day 0), the Coban, SYLKYTEX, sterilized gauze, and Sofratulle were gently removed paying attention not to damage the skin by a pair of scissors. From the next day to 20 days after transplantation, it was determined whether rejection responses occurred in the transplanted skin. This determination was carried out blind, and the median day when the rejection response occurred was calculated.
Compound,HvGR Inhibitory Rate (%) [1] [%],HvGR ID50 values [2] [mg/kg],ID50 values [3] [mg/kg],GvHD Inhibitory Rate (%) [4] [%],Median Day of Rejection Response [5] [days]
"CC(N)(CO)CCc1ccc(C(=O)CCCCc2ccccc2)s1.O=C(O)/C=C\C(=O)O (stereo not shown) [Compound A, 2-amino-2-methyl-4-[5-(5-phenylpentanoyl]thiophen-2-yl]butan-1-ol maleate]",16.0,,,,
"C[C@](N)(CO)CCc1ccc(C#CCCCC2CCCCC2)o1.O=C(O)C(=O)O [Example 2, (2R)-2-Amino-2-methyl-4-[5-(5-cyclohexylpent-1-ynyl)furan-2-yl]butan-1-ol oxalate]",,0.714,0.0899,,
"C[C@](N)(CO)CCc1ccc(C#CCCOC2CCCCC2)o1.O=C(O)C(=O)O [Example 3, (2R)-2-Amino-2-methyl-4-[5-(4-cyclohexyloxybut-1-ynyl)furan-2-yl]butan-1-ol oxalate]",,0.116,0.0774,,
"Cn1c(C#CCCCc2ccccc2)ccc1CC[C@@](C)(N)CO.O=C(O)C(=O)O [Example 9, (2R)-2-Amino-2-methyl-4-[1-methyl-5-(5-phenylpent-1-ynyl)pyrrol-2-yl]butan-1-ol oxalate]",,0.120,,,
"Cn1c(C#CCCOC2CCCCC2)ccc1CC[C@@](C)(N)CO.Cn1c(C#CCCOC2CCCCC2)ccc1CC[C@@](C)(N)CO.O=C(O)C(=O)O [Example 10, (2R)-2-Amino-2-methyl-4-[1-methyl-5-(4-cyclohexyloxybut-1-ynyl)pyrrol-2-yl]butan-1-ol ½-oxalate]",,0.276,,,
"C[C@](N)(CO)CCc1ccc(C#CCCCc2cccc(C(F)(F)F)c2)o1.O=C(O)C(=O)O [Example 15, (2R)-2-Amino-2-methyl-4-{5-[5-(3-trifluoromethylphenyl)pent-1-ynyl]furan-2-yl}butan-1-ol oxalate]",,0.304,,,
"C[C@](N)(CO)CCc1ccc(C#CCCCC2CCCCC2)o1.Cl [Example 19, (2R)-2-Amino-2-methyl-4-[5-(5-cyclohexylpent-1-ynyl)furan-2-yl]butan-1-ol hydrochloride]",,0.097,0.108,,
"C[C@](N)(CO)CCc1ccc(C#CCCOC2CCCCC2)o1.Cl [Example 20, (2R)-2-Amino-2-methyl-4-[5-(4-cyclohexyloxybut-1-ynyl)furan-2-yl]butan-1-ol hydrochloride]",,0.082,0.102,,
"Cl.Cn1c(CC[C@@](C)(N)CO)ccc1C(=O)CCCCc1ccccc1 [Example 33, (2R)-2-Amino-2-methyl-4-[1-methyl-5-(5-phenylpentanoyl)pyrrol-2-yl]butan-1-ol hydrochloride]",,0.013,0.0941,−2.9,15.0
"C=CCC1C=C(C)CC(C)CC(OC)C2OC(O)(C(=O)C(=O)N3CCCCC3C(=O)OC(C(C)=CC3CCC(O)C(OC)C3)C(C)C(O)CC1=O)C(C)CC2OC (stereo not shown) [Tacrolimus, 17-allyl-1,14-dihydroxy-12-[2-(4-hydroxy-3-methoxycyclohexyl)-1-methylvinyl]-23,25-dimethoxy-13,19,21,27-tetramethyl-11,28-dioxa-4-azatricyclo[22.3.1.0^4,9]octacos-18-ene-2,3,10,16-tetrone, reference compound]",25.8,,,7.6,11.0
